Assay results taken from US6375942B1, “Skin healing ointment” (priority 1999, dated 2002).

Test system: severe persistent rash caused by poison ivy
Assay: Case 1: ointment test on sufferer
Type: in vivo, Human
Details: adult; prescribed by dermatologist
Excerpt: They then sought out other sufferers on whom to test their ointment. The results follow:
Case 1: adult suffering from severe persistent rash caused by poison ivy. […] Application of ointment only once per day completely healed subject in 2½ days.

## CCCCC(=O)O[C@]1(C(=O)CO)[C@@H](C)C[C@H]2[C@@H]3CCC4=CC(=O)C=C[C@]4(C)[C@@]3(F)[C@@H](O)C[C@@]21C [valisone]
  outcome of prescribed treatment: without success
